Test results: ChEMBL document CHEMBL1139487, “Discovery of corticotropin releasing factor 2 receptor selective sauvagine analogues for treatment of skeletal muscle atrophy” (J Med Chem, 2005)

How the values were obtained:
[1] = molecular target: Corticotropin-releasing factor receptor 2 (Mus musculus) (UniProt Q60748); test: In vitro agonistic activity against mouse corticotropin releasing factor 2 receptor; type: functional
[2] = molecular target: T1, Corticotropin-releasing factor receptor 1 (Mus musculus, UniProt P35347); test: In vitro effective concentration for mouse corticotropin releasing factor 1 receptor
T1 sequence (P35347 whole entry): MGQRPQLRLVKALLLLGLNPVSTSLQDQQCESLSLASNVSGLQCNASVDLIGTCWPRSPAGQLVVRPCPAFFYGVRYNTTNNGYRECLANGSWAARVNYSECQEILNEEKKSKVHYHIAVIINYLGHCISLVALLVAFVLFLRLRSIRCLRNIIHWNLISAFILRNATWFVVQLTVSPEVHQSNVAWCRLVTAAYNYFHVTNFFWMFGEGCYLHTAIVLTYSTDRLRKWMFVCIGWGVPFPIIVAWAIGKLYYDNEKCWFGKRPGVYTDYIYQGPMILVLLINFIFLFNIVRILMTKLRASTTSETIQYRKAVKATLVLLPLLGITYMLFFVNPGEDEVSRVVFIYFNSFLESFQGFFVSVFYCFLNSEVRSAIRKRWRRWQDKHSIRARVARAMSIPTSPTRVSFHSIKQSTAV

[3] = molecular target: Corticotropin-releasing factor receptor 2 (Mus musculus, UniProt Q60748); test: In vitro effective concentration for mouse corticotropin releasing factor 2 receptor
Mus musculus = organism: Mus musculus; test: Selectivity ratio of EC50s for mouse corticotropin releasing factor receptors 1 and 2
[4] = molecular target: T2, Corticotropin-releasing factor receptor 1 (Mus musculus) (UniProt P35347); test: In vitro agonistic activity against mouse corticotropin releasing factor 1 receptor; type: functional
T2 sequence (whole entry): T1 sequence (P35347 whole entry)

Chain of Corticotropin-releasing factor receptor 2 (Q60748 whole entry): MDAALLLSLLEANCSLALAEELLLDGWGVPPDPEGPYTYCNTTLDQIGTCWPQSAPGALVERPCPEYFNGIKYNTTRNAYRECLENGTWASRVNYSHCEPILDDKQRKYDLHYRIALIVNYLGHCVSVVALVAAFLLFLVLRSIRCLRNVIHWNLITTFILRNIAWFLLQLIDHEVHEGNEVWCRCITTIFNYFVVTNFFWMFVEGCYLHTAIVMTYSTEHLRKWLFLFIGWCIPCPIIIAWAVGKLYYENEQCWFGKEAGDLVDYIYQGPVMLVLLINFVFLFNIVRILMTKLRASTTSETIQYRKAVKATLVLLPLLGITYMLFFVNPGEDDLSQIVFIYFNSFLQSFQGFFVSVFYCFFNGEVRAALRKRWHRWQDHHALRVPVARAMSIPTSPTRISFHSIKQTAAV
Chain of Corticotropin-releasing factor receptor 2 (Mus musculus) (Q60748 whole entry): as above

Structure (SMILES) | Emax [1] [%] | EC50 [2] [nM] | EC50 [3] [nM] | Selectivity (Mus musculus) | Emax [4] [%]
CC[C@H](C)[C@H](NC(=O)[C@@H](NC(=O)[C@H](CC(=O)O)NC(=O)[C@H](CC(C)C)NC(=O)[C@H](CC(C)C)NC(=O)[C@H](CC(C)C)NC(=O)[C@H](CCCN=C(N)N)NC(=O)[C@H](CC(N)=O)NC(=O)[C@H](CC(N)=O)NC(=O)[C@H](C)NC(=O)[C@H](C)NC(=O)[C@H](CCC(N)=O)NC(=O)[C@H](CCC(N)=O)NC(=O)[C@H](CCCCN)NC(=O)[C@H](CCC(=O)O)NC(=O)[C@H](CCCCN)NC(=O)[C@H](CCC(=O)O)NC(=O)[C@H](CCC(N)=O)NC(=O)[C@H](CCCCN)NC(=O)[C@H](CCC(=O)O)NC(=O)[C@@H](NC(=O)[C@H](CCC(=O)O)NC(=O)[C@@H](NC(=O)[C@H](CCSC)NC(=O)[C@H](CCCCN)NC(=O)[C@H](CCCN=C(N)N)NC(=O)[C@H](CC(C)C)NC(=O)[C@H](CC(C)C)NC(=O)[C@H](Cc1c[nH]c2ccccc12)NC(=O)[C@H](CC(C)C)NC(=O)[C@@H]1CCCN1C(=O)[C@H](CC(C)C)NC(=O)[C@H](CC(=O)O)NC(=O)[C@@H](NC(=O)[C@H](CO)NC(=O)[C@@H](NC(=O)[C@@H]1CCCN1C(=O)[C@@H]1CCCN1C(=O)CNC(=O)[C@@H]1CCC(=O)N1)[C@@H](C)CC)[C@@H](C)CC)[C@@H](C)CC)[C@@H](C)CC)[C@@H](C)O)C(=O)O | 96 | 98.4 | 4.8 | 20 | 100
CC[C@H](C)[C@H](NC(=O)[C@@H](NC(=O)[C@H](CC(=O)O)NC(=O)[C@H](CC(C)C)NC(=O)[C@H](CC(C)C)NC(=O)[C@H](CC(C)C)NC(=O)[C@H](CCCN=C(N)N)NC(=O)[C@H](CC(N)=O)NC(=O)[C@H](CC(N)=O)NC(=O)[C@H](C)NC(=O)[C@H](C)NC(=O)[C@H](CCC(N)=O)NC(=O)[C@H](CCC(N)=O)NC(=O)[C@H](CCCCN)NC(=O)[C@H](CCC(=O)O)NC(=O)[C@H](CCCCN)NC(=O)[C@H](CCC(=O)O)NC(=O)[C@H](CCC(N)=O)NC(=O)[C@H](CCCCN)NC(=O)[C@H](CCC(=O)O)NC(=O)[C@@H](NC(=O)[C@H](CCC(=O)O)NC(=O)[C@@H](NC(=O)[C@H](CCSC)NC(=O)[C@H](CCCCN)NC(=O)[C@H](CCCN=C(N)N)NC(=O)[C@H](CC(C)C)NC(=O)[C@H](CC(C)C)NC(=O)[C@H](Cc1c[nH]cn1)NC(=O)[C@H](Cc1ccc(O)cc1)NC(=O)[C@@H]1CCCN1C(=O)[C@H](CC(C)C)NC(=O)[C@H](CC(=O)O)NC(=O)[C@@H](NC(=O)[C@H](CO)NC(=O)[C@@H](NC(=O)[C@@H]1CCCN1C(=O)[C@@H]1CCCN1C(=O)CNC(=O)[C@@H]1CCC(=O)N1)[C@@H](C)CC)[C@@H](C)CC)[C@@H](C)CC)[C@@H](C)CC)[C@@H](C)O)C(=O)O | 88 | 64.9 | 5.6 | 13 | 81
CC[C@H](C)[C@H](NC(=O)[C@@H](NC(=O)[C@H](CC(=O)O)NC(=O)[C@H](CC(C)C)NC(=O)[C@H](CC(C)C)NC(=O)[C@H](CC(C)C)NC(=O)[C@H](CCCN=C(N)N)NC(=O)[C@H](CC(N)=O)NC(=O)[C@H](CC(N)=O)NC(=O)[C@H](C)NC(=O)[C@H](C)NC(=O)[C@H](CCC(N)=O)NC(=O)[C@H](CCC(N)=O)NC(=O)[C@H](CCCCN)NC(=O)[C@H](CCC(=O)O)NC(=O)[C@H](CCCCN)NC(=O)[C@H](CCC(=O)O)NC(=O)[C@H](CCC(N)=O)NC(=O)[C@H](CCCCN)NC(=O)[C@H](CCC(=O)O)NC(=O)[C@@H](NC(=O)[C@H](CCC(=O)O)NC(=O)[C@@H](NC(=O)[C@H](CCSC)NC(=O)[C@H](CCCCN)NC(=O)[C@H](CCCN=C(N)N)NC(=O)[C@H](CC(C)C)NC(=O)[C@H](CC(C)C)NC(=O)[C@H](CC(C)C)NC(=O)[C@H](Cc1ccc(O)cc1)NC(=O)[C@@H]1CCCN1C(=O)[C@H](CC(C)C)NC(=O)[C@H](CC(=O)O)NC(=O)[C@@H](NC(=O)[C@H](CO)NC(=O)[C@@H](NC(=O)[C@@H]1CCCN1C(=O)[C@@H]1CCCN1C(=O)CNC(=O)[C@@H]1CCC(=O)N1)[C@@H](C)CC)[C@@H](C)CC)[C@@H](C)CC)[C@@H](C)CC)[C@@H](C)O)C(=O)O | 94 |  |  | 15 | 86
CC[C@H](C)[C@H](NC(=O)[C@@H](NC(=O)[C@H](CC(=O)O)NC(=O)[C@H](CC(C)C)NC(=O)[C@H](CC(C)C)NC(=O)[C@H](CC(C)C)NC(=O)[C@H](CCCN=C(N)N)NC(=O)[C@H](CC(N)=O)NC(=O)[C@H](CC(N)=O)NC(=O)[C@H](C)NC(=O)[C@H](C)NC(=O)[C@H](CCC(N)=O)NC(=O)[C@H](CCC(N)=O)NC(=O)[C@H](CCCCN)NC(=O)[C@H](CCC(=O)O)NC(=O)[C@H](CCCCN)NC(=O)[C@H](CCC(=O)O)NC(=O)[C@H](CCC(N)=O)NC(=O)[C@H](CCCCN)NC(=O)[C@H](CCC(=O)O)NC(=O)[C@@H](NC(=O)[C@H](CCC(=O)O)NC(=O)[C@@H](NC(=O)[C@H](CCSC)NC(=O)[C@H](CCCCN)NC(=O)[C@H](CCCN=C(N)N)NC(=O)[C@H](CC(C)C)NC(=O)[C@H](CC(C)C)NC(=O)[C@@H](NC(=O)[C@H](CC(C)C)NC(=O)[C@@H]1CCCN1C(=O)[C@H](CC(C)C)NC(=O)[C@H](CC(=O)O)NC(=O)[C@@H](NC(=O)[C@H](CO)NC(=O)[C@@H](NC(=O)[C@@H]1CCCN1C(=O)[C@@H]1CCCN1C(=O)CNC(=O)[C@@H]1CCC(=O)N1)[C@@H](C)CC)[C@@H](C)CC)C(C)C)[C@@H](C)CC)[C@@H](C)CC)[C@@H](C)O)C(=O)O | 94 |  |  | 48 | 95

Further lines, results first:

Emax [1] [%] | EC50 [2] [nM] | EC50 [3] [nM] | Selectivity (Mus musculus) | Emax [4] [%] | Structure (SMILES)
87 | 943 | 19.2 | 49 | 64 | CC[C@H](C)[C@H](NC(=O)[C@@H](NC(=O)[C@H](CC(=O)O)NC(=O)[C@H](CC(C)C)NC(=O)[C@H](CC(C)C)NC(=O)[C@H](CC(C)C)NC(=O)[C@H](CCCN=C(N)N)NC(=O)[C@H](CC(N)=O)NC(=O)[C@H](CC(N)=O)NC(=O)[C@H](C)NC(=O)[C@H](C)NC(=O)[C@H](CCC(N)=O)NC(=O)[C@H](CCC(N)=O)NC(=O)[C@H](CCCCN)NC(=O)[C@H](CCC(=O)O)NC(=O)[C@H](CCCCN)NC(=O)[C@H](CCC(=O)O)NC(=O)[C@H](CCC(N)=O)NC(=O)[C@H](CCCCN)NC(=O)[C@H](CCC(=O)O)NC(=O)[C@@H](NC(=O)[C@H](CCC(=O)O)NC(=O)[C@@H](NC(=O)[C@H](CCSC)NC(=O)[C@H](CCCCN)NC(=O)[C@H](CCCN=C(N)N)NC(=O)[C@H](CC(C)C)NC(=O)[C@H](CC(C)C)NC(=O)[C@H](Cc1ccccc1)NC(=O)[C@@H](NC(=O)[C@@H]1CCCN1C(=O)[C@H](CC(C)C)NC(=O)[C@H](CC(=O)O)NC(=O)[C@@H](NC(=O)[C@H](CO)NC(=O)[C@@H](NC(=O)[C@@H]1CCCN1C(=O)[C@@H]1CCCN1C(=O)CNC(=O)[C@@H]1CCC(=O)N1)[C@@H](C)CC)[C@@H](C)CC)[C@@H](C)O)[C@@H](C)CC)[C@@H](C)CC)[C@@H](C)O)C(=O)O
100 | 384 | 9.4 | 41 | 95 | CC[C@H](C)[C@H](NC(=O)[C@@H](NC(=O)[C@H](CC(=O)O)NC(=O)[C@H](CC(C)C)NC(=O)[C@H](CC(C)C)NC(=O)[C@H](CC(C)C)NC(=O)[C@H](CCCN=C(N)N)NC(=O)[C@H](CC(N)=O)NC(=O)[C@H](CC(N)=O)NC(=O)[C@H](C)NC(=O)[C@H](C)NC(=O)[C@H](CCC(N)=O)NC(=O)[C@H](CCC(N)=O)NC(=O)[C@H](CCCCN)NC(=O)[C@H](CCC(=O)O)NC(=O)[C@H](CCCCN)NC(=O)[C@H](CCC(=O)O)NC(=O)[C@H](CCC(N)=O)NC(=O)[C@H](CCCCN)NC(=O)[C@H](CCC(=O)O)NC(=O)[C@@H](NC(=O)[C@H](CCC(=O)O)NC(=O)[C@@H](NC(=O)[C@H](CCSC)NC(=O)[C@H](CCCCN)NC(=O)[C@H](CCCN=C(N)N)NC(=O)[C@H](CC(C)C)NC(=O)[C@H](CC(C)C)NC(=O)[C@H](Cc1ccccc1)NC(=O)[C@H](C)NC(=O)[C@@H]1CCCN1C(=O)[C@H](CC(C)C)NC(=O)[C@H](CC(=O)O)NC(=O)[C@@H](NC(=O)[C@H](CO)NC(=O)[C@@H](NC(=O)[C@@H]1CCCN1C(=O)[C@@H]1CCCN1C(=O)CNC(=O)[C@@H]1CCC(=O)N1)[C@@H](C)CC)[C@@H](C)CC)[C@@H](C)CC)[C@@H](C)CC)[C@@H](C)O)C(=O)O
98 | 80.9 | 7.8 | 10 | 100 | CC[C@H](C)[C@H](NC(=O)[C@@H](NC(=O)[C@H](CC(=O)O)NC(=O)[C@H](CC(C)C)NC(=O)[C@H](CC(C)C)NC(=O)[C@H](CC(C)C)NC(=O)[C@H](CCCN=C(N)N)NC(=O)[C@H](CC(N)=O)NC(=O)[C@H](CC(N)=O)NC(=O)[C@H](C)NC(=O)[C@H](C)NC(=O)[C@H](CCC(N)=O)NC(=O)[C@H](CCC(N)=O)NC(=O)[C@H](CCCCN)NC(=O)[C@H](CCC(=O)O)NC(=O)[C@H](CCCCN)NC(=O)[C@H](CCC(=O)O)NC(=O)[C@H](CCC(N)=O)NC(=O)[C@H](CCCCN)NC(=O)[C@H](CCC(=O)O)NC(=O)[C@@H](NC(=O)[C@H](CCC(=O)O)NC(=O)[C@@H](NC(=O)[C@H](CCSC)NC(=O)[C@H](CCCCN)NC(=O)[C@H](CCCN=C(N)N)NC(=O)[C@H](CC(C)C)NC(=O)[C@H](CC(C)C)NC(=O)[C@H](Cc1ccccc1)NC(=O)[C@H](Cc1c[nH]cn1)NC(=O)[C@@H]1CCCN1C(=O)[C@H](CC(C)C)NC(=O)[C@H](CC(=O)O)NC(=O)[C@@H](NC(=O)[C@H](CO)NC(=O)[C@@H](NC(=O)[C@@H]1CCCN1C(=O)[C@@H]1CCCN1C(=O)CNC(=O)[C@@H]1CCC(=O)N1)[C@@H](C)CC)[C@@H](C)CC)[C@@H](C)CC)[C@@H](C)CC)[C@@H](C)O)C(=O)O
